{
  "source": "patent US20240343760A1",
  "about": "“PEPTIDES FOR CELL-TYPE SPECIFIC TARGETING OF THE RETINA” (Oregon State University, priority 2021, published 2024)",
  "key": {"[1]": {"test_system": "PR and RPE/choroid layers", "conditions": "mouse, in vivo", "procedure": "(§3) For subretinal injections, mice were topically administered 0.5% proparacaine, 1% tropicamide, and 2.5% phenylephrine and anesthetized with ketamine (100 mg/kg)/xylazine (10 mg/kg). To initiate the injection, 2.5% hypromellose was used to cover the eye and a 30-gauge needle was used to make an incision in the limbus. A glass coverslip was then placed over the eye to allow for visualization of the retina. Going through the scleral incision in the limbus, using a Hamilton syringe with a 33-gauge blunt needle, 1 μL PBS, peptide, or LNP-Cre were delivered to the subretinal space. A 2% fluorescein solution was added to the PBS and LNPs so retinal detachment could be confirmed. For most injections, scleral incisions in the limbus were created nasally and PBS or LNPs were delivered temporally. Intravitreal injections were performed as previously described elsewhere (25). […] For intravitreal injections 1.1 μg (1.5 μL, 741 ng/μL) was injected.\n(§4) At specified time points, mouse eyes were enucleated and fixed using 4% paraformaldehyde in PBS overnight at 4° C. Eyes were cryopreserved in 30% sucrose solution for 2 hours prior to embedding in OCT media followed by cryo-sectioning and confocal imaging. Retinal cryo-sections were 12 μm thick and DAPI stained prior to confocal imaging done using TCS SP8 X (Leica Microsystems, Buffalo Grove, IL). Z-stacks (spanned 10 μm with 1 μm interval) were collected using a 40× objective, and maximum intensity projections were used for further analysis.\n(§5) All confocal imaging was performed using TCS SP8 X (Leica Microsystems, Buffalo Grove, IL). Z-stacks (spanned 10 μm with 1 μm interval) were collected using a 20× or 40× objective, and maximum intensity projections were used for further analysis.\n(§6) For TAMRA quantification from peptide injections, region of interest (ROI) were created for RPE/choroid and PR cell layer for mean fluorescent intensity values. Fold change measurements were compared to TAMRA-only controls. An ordinary one-way ANOVA, with Tukey's correction for multiple comparisons test was used for comparisons between groups (Prism 8 software, GraphPad Software, La Jolla, CA). Data are presented as mean±SEM. A p-value <0.05 was considered as statistically significant."}, "661w cone cells [2]": {"test_system": "661w cone cells", "test": "Cell internalization of TAMRA-labeled peptides, 661w cone cells", "assay_type": "cell-based, mouse", "conditions": "661w cells, TAMRA-conjugated peptide, 30 minutes", "method": "Approximately 50,000 cells were seeded per well of 8-well μ-Slide (Ibidi, Fitchburg, WI) and incubated with 10 nM and 50 nM TAMRA-labeled peptides for 30 minutes at 37° C. followed by washing with PBS, fixation in 4% Paraformaldehyde for 10 mins at room temperature. Cells were then washed three times, DAPI stained and cover slipped for confocal microscopy imaging. Fluorescence confocal images of cell internalization studies were captured with the same exposure settings and were analyzed for fluorescence intensity using ImageJ (version 1.45; National Institutes of Health, Bethesda, MD). First, the hARPE or 661w cells were outlined and ImageJ calculated the pixel intensity of the different cell treatments with different peptides. At least three images were analyzed for each peptide tested.\nTAMRA-conjugated peptides were added to hARPE19 and 661w cells at a 10 nM and 50 nM concentration to evaluate their internalization (FIGS. 2E to 2H and 8A to 8B). After 30 minutes of incubation at 37° C., cells were fixed and DAPI stained for confocal imaging."}, "hARPE19 cells": {"test_system": "hARPE19 cells", "test": "Cell ELISA of phage-displayed peptides on hARPE19 cells", "assay_type": "cell-based", "conditions": "vs empty bacteriophage control", "method": "(§1) ARPE19 and 661w cells were seeded a day before the experiment on 96 well plates (10^4 cells/well). On day of experiment, cells were first fixed in 4% paraformaldehyde solution at room temperature for 15 minutes. This was followed by three washes with PBS and then the cells were blocked for 30 minutes at room temperature with 1% BSA in PBS. […] The wells were then washed with 0.1% TBST and individual phage clones were incubated for one hour at room temperature in blocking buffer with gentle rocking. After phage incubation, wells were washed three times with 0.1% TBST to reduce non-specific binding and eliminate weakly bound phages. Biotin-conjugated, mouse anti-M13 phage coat protein primary antibody was added (Thermo Fisher cat. #MA1-34468) at 1:5000 dilution in 0.1% TBST and incubated for 1 hour at room temperature with gentle rocking. The wells were washed three more times with 0.1% TBST and subsequently incubated with poly-HRP streptavidin secondary antibody (Thermo Fisher cat. #N200) at 1:10000 dilution in 0.1% TBST for 1 hour at room temperature. Wells were then washed three times with 0.1% TBST and 3,3′,5,5′-Tetramethylbenzidine (Thermo Fisher) was added to the wells and incubated at room temperature for 5-10 minutes and the reaction was stopped with 0.2 M Sulfuric Acid and absorbance was read at 450 nm using TECAN Infinite200 Pro spectrophotometer (Tecan Group Ltd., Switzerland).\n(§2) After identifying 30 novel peptide sequences, top-performing candidates were identified that could target LNPs to the neural retina. Since bacteriophages were eluted from the entire neural retina, the candidates were pre-screened for their ability to bind to the cell of interest, the PRs. Single bacteriophage-peptides were amplified in E. coli, and a cell-based enzyme-linked immunosorbent assay (ELISA) was developed against the 661w mouse cone PR cell line and the hARPE19 cell line as a control. As expected, for most of the bacteriophage-peptide candidates, binding affinities were weaker when tested against RPE cells compared to 661w cone cells. […] However, the binding affinity, as measured by OD450, was close to 2-fold higher when binding to 661w cone cells compared to hARPE19 cells."}, "661w cone cells [3]": {"test_system": "661w cone cells", "test": "Cell ELISA of phage-displayed peptides on 661w cone cells", "assay_type": "cell-based, mouse", "conditions": "for binding affinity (OD450) 661w cone cells compared to hARPE19 cells: ratio 661w / hARPE19; for binding to 661w cone cells (cell ELISA, OD450): vs empty bacteriophage control", "method": "as §1, §2"}, "[4]": {"test_system": "PR and RPE/choroid layers", "test": "In vivo validation with TAMRA-labelled peptides, intravitreal or subretinal injection", "procedure": "as §3, §4, §5, §6"}},
  "note": "“Also recorded” adds a separate entry of the source. Read-outs that look alike come from different tables or passages of the source. Ends that are not written are not given here. TAMRA = 5-(and -6)-carboxytetramethylrhodamine fluorophore, conjugated to the side chain of the C-terminal Cys",
  "data": [
    {"substance": "MPVAVYRGGGSC (MPVAVYRGGGSC(TAMRA)) [MH50, peptide 50 with added linker; TAMRA-labelled at carboxy-terminal Cys in cell and in vivo tests]", "values": [
      {"measurement": "retinal localization of TAMRA-labelled peptide (confocal)", "setting": "[1]", "result": "localized to PRs including the outer nuclear layer and inner/outer segments as well as RPE"},
      {"measurement": "cellular uptake compared to the negative control MH3", "setting": "661w cone cells [2]", "result": 4.1, "unit": "fold"},
      {"measurement": "binding to hARPE19 (RPE) cells (cell ELISA, OD450)", "setting": "hARPE19 cells", "result": "significantly higher binding"},
      {"measurement": "binding affinity (OD450) 661w cone cells compared to hARPE19 cells", "setting": "661w cone cells [3]", "result": "~2", "unit": "fold"},
      {"measurement": "binding to 661w cone cells (cell ELISA, OD450)", "setting": "661w cone cells [3]", "result": "high binding; also recorded: high-binders; also recorded: top 2 performing"}
    ]},
    {"substance": "MPVAVYR [Peptide 50]", "values": [
      {"measurement": "binding to hARPE19 (RPE) cells (cell ELISA, OD450)", "setting": "hARPE19 cells", "result": "highest affinity"},
      {"measurement": "binding to 661w cone cells (cell ELISA, OD450)", "setting": "661w cone cells [3]", "result": "highest affinity"}
    ]},
    {"substance": "HLSSLTP [Peptide 54]", "values": [
      {"measurement": "binding to hARPE19 (RPE) cells (cell ELISA, OD450)", "setting": "hARPE19 cells", "result": "highest affinity"},
      {"measurement": "binding to hARPE19 (RPE) cells (cell ELISA, OD450)", "setting": "hARPE19 cells; listed as MH54", "result": "significantly higher binding"},
      {"measurement": "binding to 661w cone cells (cell ELISA, OD450)", "setting": "661w cone cells [3]", "result": "highest affinity"}
    ]},
    {"substance": "DGPPRKP [Peptide 3]", "values": [
      {"measurement": "binding to hARPE19 (RPE) cells (cell ELISA, OD450)", "setting": "hARPE19 cells", "result": "highest affinity"}
    ]},
    {"substance": "DGPPRKPGGGSC (DGPPRKPGGGSC(TAMRA); not fully specified) [MH3, peptide 3 with added linker; TAMRA-labelled at carboxy-terminal Cys in cell and in vivo tests]", "values": [
      {"measurement": "retinal localization of TAMRA-labelled peptide (confocal)", "setting": "[4]", "result": "poor accumulation in RPE and PRs"},
      {"measurement": "binding to hARPE19 (RPE) cells (cell ELISA, OD450)", "setting": "hARPE19 cells", "result": "significantly higher binding"},
      {"measurement": "binding to 661w cone cells (cell ELISA, OD450)", "setting": "661w cone cells [3]", "result": "reduced binding affinity; also recorded: low-binder"}
    ]},
    {"substance": "ATGPRSV [Peptide 57]", "values": [
      {"measurement": "binding to hARPE19 (RPE) cells (cell ELISA, OD450)", "setting": "hARPE19 cells", "result": "highest affinity"},
      {"measurement": "binding to hARPE19 (RPE) cells (cell ELISA, OD450)", "setting": "hARPE19 cells; listed as MH57", "result": "significantly higher binding"},
      {"measurement": "binding affinity (OD450) 661w cone cells compared to hARPE19 cells", "setting": "661w cone cells [3]", "result": "~2", "unit": "fold"},
      {"measurement": "binding to 661w cone cells (cell ELISA, OD450)", "setting": "661w cone cells [3]", "result": "high binding"}
    ]},
    {"substance": "SNLAAFPGGGSC (SNLAAFPGGGSC(TAMRA)) [MH43, peptide 43 with added linker; TAMRA-labelled at carboxy-terminal Cys in cell and in vivo tests]", "values": [
      {"measurement": "binding to 661w cone cells (cell ELISA, OD450)", "setting": "661w cone cells [3]", "result": "high-binders"}
    ]},
    {"substance": "SNLAAFP [Peptide 43]", "values": [
      {"measurement": "binding to 661w cone cells (cell ELISA, OD450)", "setting": "661w cone cells [3]", "result": "highest affinity"}
    ]},
    {"substance": "SPALHFL [Peptide 42]", "values": [
      {"measurement": "binding to 661w cone cells (cell ELISA, OD450)", "setting": "661w cone cells [3]", "result": "highest affinity"}
    ]},
    {"substance": "LAFHRMP [Peptide 52]", "values": [
      {"measurement": "binding to hARPE19 (RPE) cells (cell ELISA, OD450)", "setting": "hARPE19 cells", "result": "highest affinity"},
      {"measurement": "binding to hARPE19 (RPE) cells (cell ELISA, OD450)", "setting": "hARPE19 cells; listed as MH52", "result": "significantly higher binding"},
      {"measurement": "binding affinity (OD450) 661w cone cells compared to hARPE19 cells", "setting": "661w cone cells [3]", "result": "~2", "unit": "fold"},
      {"measurement": "binding to 661w cone cells (cell ELISA, OD450)", "setting": "661w cone cells [3]", "result": "highest affinity"},
      {"measurement": "binding to 661w cone cells (cell ELISA, OD450)", "setting": "661w cone cells [3]; listed as MH52", "result": "high binding"}
    ]},
    {"substance": "SPALHFLGGGSC (SPALHFLGGGSC(TAMRA)) [MH42, peptide 42 with added linker; TAMRA-labelled at carboxy-terminal Cys in cell and in vivo tests]", "values": [
      {"measurement": "clearance of labelled peptide from retina", "setting": "[1]", "result": "≤ 24", "unit": "h"},
      {"measurement": "retinal localization of TAMRA-labelled peptide (confocal)", "setting": "[1]", "result": "localized to PRs including the outer nuclear layer and inner/outer segments as well as RPE"},
      {"measurement": "timepoint of maximum level of labelled peptide in retina", "setting": "[1]", "result": 6, "unit": "h"},
      {"measurement": "cellular uptake compared to the negative control MH3", "setting": "661w cone cells [2]", "result": 1.7, "unit": "fold"},
      {"measurement": "binding to hARPE19 (RPE) cells (cell ELISA, OD450)", "setting": "hARPE19 cells", "result": "significantly higher binding"},
      {"measurement": "binding affinity (OD450) 661w cone cells compared to hARPE19 cells", "setting": "661w cone cells [3]", "result": "~2", "unit": "fold"},
      {"measurement": "binding to 661w cone cells (cell ELISA, OD450)", "setting": "661w cone cells [3]", "result": "high binding; also recorded: high-binders; also recorded: top 2 performing"}
    ]}
  ]
}
